In PubChem BioAssay AID248 (DTP/NCI, 2004):
“And” between values parts separate entries of the source, which are not always exact repeats. Equal entries are not always repeated. Toxic doses and inconclusive results are not listed. Cut-off read from the data, not from the text of the source: active = T/C of 150% or more; inactive = T/C below 125%.

Tested on: L1210 leukemia ip in BDF1 mice, survival T/C
Test: NCI In Vivo Anticancer Drug Screen. Data for tumor model L1210 Leukemia (intraperitoneal) in B6D2F1 (BDF1) mice
Conditions: endpoint: mean survival time, higher = longer survival
Outline: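 Survival endpoint. Drug-treated group vs vehicle group, expressed as T divided by C. Tumor passaged by transplantation.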

[1] = dose: 100.0 mg/kg/injection, schedule: Q04DX002 (ip), vehicle: saline
[2] = dose: 100.0 mg/kg/injection, schedule: Q04DX003 (ip), vehicle: Klucel (hydroxypropylcellulose) (HPC)
[3] = dose: 200.0 mg/kg/injection, schedule: Q04DX002 (ip), vehicle: saline
[4] = dose: 200.0 mg/kg/injection, schedule: Q04DX003 (ip), vehicle: Klucel (hydroxypropylcellulose) (HPC)
[5] = dose: 400.0 mg/kg/injection, schedule: Q04DX002 (ip), vehicle: saline
[6] = dose: 400.0 mg/kg/injection, schedule: Q04DX003 (ip), vehicle: Klucel (hydroxypropylcellulose) (HPC)
[7] = dose: 100.0 mg/kg/injection, schedule: Q01DX009 (ip), vehicle: Klucel (hydroxypropylcellulose) (HPC)
[8] = dose: 200.0 mg/kg/injection, schedule: Q01DX009 (ip), vehicle: Klucel (hydroxypropylcellulose) (HPC)
[9] = dose: 100.0 mg/kg/injection, schedule: Q04DX002 (ip), vehicle: Klucel (hydroxypropylcellulose) (HPC)
[10] = dose: 200.0 mg/kg/injection, schedule: Q04DX002 (ip), vehicle: Klucel (hydroxypropylcellulose) (HPC)
[11] = dose: 50.0 mg/kg/injection, schedule: Q01DX001 (ip), vehicle: carboxymethylcellulose (CMC)
[12] = dose: 100.0 mg/kg/injection, schedule: Q01DX009 (ip), vehicle: saline with Tween-80
[13] = dose: 100.0 mg/kg/injection, schedule: Q04DX003 (ip), vehicle: saline with Tween-80
[14] = dose: 200.0 mg/kg/injection, schedule: Q04DX003 (ip), vehicle: saline with Tween-80
[15] = dose: 400.0 mg/kg/injection, schedule: Q04DX003 (ip), vehicle: saline with Tween-80
[16] = dose: 100.0 mg/kg/injection, schedule: Q01DX001 (ip), vehicle: Klucel (hydroxypropylcellulose) (HPC)
[17] = dose: 200.0 mg/kg/injection, schedule: Q01DX001 (ip), vehicle: Klucel (hydroxypropylcellulose) (HPC)

Measured: T/C

C/C(=N/N(C)C)c1ccccc1
inactive: [1] 97 % of control | [2] 112 % of control | [3] 108 % of control | [4] 95 % of control | [5] 108 % of control | [6] 90 % of control

O=C(Nc1ccc(C(=O)Nc2ccc(C3=NCCN3)cc2)cc1)Nc1ccc(C(=O)Nc2ccc(C3=NCCN3)cc2)cc1
inactive: dose: 15.0 mg/kg/injection, schedule: Q01DX Z (ip), vehicle: methylcellulose (MC) 102 % of control | dose: 30.0 mg/kg/injection, schedule: Q01DX Z (ip), vehicle: methylcellulose (MC) 103 % of control | dose: 60.0 mg/kg/injection, schedule: Q01DX Z (ip), vehicle: methylcellulose (MC) 101 % of control | dose: 62.0 mg/kg/injection, schedule: Q01DX Z (ip), vehicle: carboxymethylcellulose (CMC) 91 % of control | dose: 120.0 mg/kg/injection, schedule: Q01DX Z (ip), vehicle: methylcellulose (MC) 103 % of control | dose: 125.0 mg/kg/injection, schedule: Q01DX Z (ip), vehicle: carboxymethylcellulose (CMC) 91 % of control | dose: 250.0 mg/kg/injection, schedule: Q01DX Z (ip), vehicle: carboxymethylcellulose (CMC) 96 % of control

CC(C)COP(=O)(Cc1ccccc1)OCC(C)C
inactive: [7] 110 % of control | [8] 101 % of control

Nc1c(Cl)ncnc1Nc1cccc(C(F)(F)F)c1
inactive: [2] 92 % of control | [4] 97 % of control | [6] 104 % of control

CC(/C=C/c1ccco1)=N\O
inactive: dose: 50.0 mg/kg/injection, schedule: Q01DX009 (ip), vehicle: other 105 % of control

O=C(OCc1ccccc1CN1CCOCC1)c1ccccc1
inactive: [9] 98 % of control | [10] 105 % of control | dose: 400.0 mg/kg/injection, schedule: Q04DX002 (ip), vehicle: Klucel (hydroxypropylcellulose) (HPC) 96 % of control

O=C(O)c1cc(Br)c(OCc2ccccc2)c(Br)c1
inactive: dose: 100.0 mg/kg/injection, schedule: Q01DX001 (ip), vehicle: saline with Tween-80 101 % of control | dose: 200.0 mg/kg/injection, schedule: Q01DX001 (ip), vehicle: saline with Tween-80 104 % of control | dose: 400.0 mg/kg/injection, schedule: Q01DX001 (ip), vehicle: saline with Tween-80 104 % of control

CCCCOCCCNC1=C(Cl)C(=O)c2ccccc2C1=O
inactive: dose: 12.5 mg/kg/injection, schedule: Q01DX001 (ip), vehicle: carboxymethylcellulose (CMC) 92 % of control | dose: 25.0 mg/kg/injection, schedule: Q01DX001 (ip), vehicle: carboxymethylcellulose (CMC) 96 % of control | [11] 105 % of control

CCOC(=O)CC1C(=O)Oc2ccc(O)cc21 (stereo not drawn) (tested in a mixture with another compound)
inactive: [12] 100 % of control | [13] 96 % of control | dose: 200.0 mg/kg/injection, schedule: Q01DX009 (ip), vehicle: saline with Tween-80 97 % of control | [14] 110 % of control | dose: 400.0 mg/kg/injection, schedule: Q01DX009 (ip), vehicle: saline with Tween-80 90 % of control | [15] 94 % of control

O=C(O)c1nccc2c(O)cccc12
inactive: dose: 100.0 mg/kg/injection, schedule: Q04DX003 (ip), vehicle: saline 93 % of control | dose: 200.0 mg/kg/injection, schedule: Q04DX003 (ip), vehicle: saline 102 % of control | dose: 400.0 mg/kg/injection, schedule: Q04DX003 (ip), vehicle: saline 101 % of control

COc1ccc(CCCCI)cc1
inactive: dose: 100.0 mg/kg/injection, schedule: Q01DX001 (ip), vehicle: acetone 98 % of control | dose: 100.0 mg/kg/injection, schedule: Q04DX003 (ip), vehicle: acetone 93 % of control | dose: 200.0 mg/kg/injection, schedule: Q01DX001 (ip), vehicle: acetone 95 % of control | dose: 200.0 mg/kg/injection, schedule: Q04DX003 (ip), vehicle: acetone 94 % of control | dose: 400.0 mg/kg/injection, schedule: Q01DX001 (ip), vehicle: acetone 115 % of control | dose: 400.0 mg/kg/injection, schedule: Q04DX003 (ip), vehicle: acetone 95 % of control

C/C=C/C=C\COC(=O)CC
inactive: [1] 103 % of control | [3] 100 % of control | [5] 103 % of control

Cc1c2oc3c(C)c(N)cc(C(=O)NC4C(=O)NC(C(C)C)C(=O)N5CCCC5C(=O)N(C)CC(=O)N(C)C(C(C)C)C(=O)OC4C)c3nc-2c(C(=O)NC2C(=O)NC(C(C)C)C(=O)N3CCCC3C(=O)N(C)CC(=O)N(C)C(C(C)C)C(=O)OC2C)c(N)c1=O (stereo not drawn)
inactive: dose: 75.0 micrograms/kg/injection, schedule: Q01DX009 (ip), vehicle: saline + alcohol 121 % of control | dose: 150.0 micrograms/kg/injection, schedule: Q01DX009 (ip), vehicle: saline + alcohol 113 % of control | dose: 200.0 micrograms/kg/injection, schedule: Q01DX009 (ip), vehicle: saline + alcohol 102 % of control | dose: 300.0 micrograms/kg/injection, schedule: Q01DX009 (ip), vehicle: saline + alcohol 90 % of control | dose: 300.0 micrograms/kg/injection, schedule: Q04DX003 (ip), vehicle: saline + alcohol 119 % of control | dose: 800.0 micrograms/kg/injection, schedule: Q04DX003 (ip), vehicle: saline + alcohol 106 % of control | dose: 1200.0 micrograms/kg/injection, schedule: Q04DX003 (ip), vehicle: saline + alcohol 87 % of control

Cc1ccc(C(=O)/C=C\c2ccc(Cl)cc2Cl)cc1
inactive: [2] 92 % of control | [4] 100 % of control | [6] 92 % of control

CC1=CC(=O)C=CC1(C)C
inactive: [16] 100 % of control | [7] 94 % of control | [17] 100 % of control | [8] 94 % of control | dose: 400.0 mg/kg/injection, schedule: Q01DX001 (ip), vehicle: Klucel (hydroxypropylcellulose) (HPC) 108 % of control

CCO/C=C1/C(=O)N(C)c2c1c(=O)n(C)c(=O)n2C
inactive: [9] 106 % of control | [10] 109 % of control

CSc1ccnc2n[nH]nc12
inactive: [16] 102 % of control | [2] 94 % of control | [17] 104 % of control | [4] 101 % of control

CC(=O)NC1CCC(Br)CC1 (stereo not drawn)
inactive: dose: 50.0 mg/kg/injection, schedule: Q01DX009 (ip), vehicle: Klucel (hydroxypropylcellulose) (HPC) 94 % of control | [7] 105 % of control | [8] 102 % of control

COC(=O)CN(c1ccc(C#N)c2ccccc12)S(=O)(=O)c1ccccc1
inactive: [13] 94 % of control | [14] 96 % of control | [15] 94 % of control

O=c1[nH]cncc1CCC1OCCO1
inactive: dose: 100.0 mg/kg/injection, schedule: Q01DX009 (ip), vehicle: saline 98 % of control | dose: 200.0 mg/kg/injection, schedule: Q01DX009 (ip), vehicle: saline 109 % of control

O=C(Cc1ccccc1)NCc1ccccc1Cl
inactive: dose: 25.0 mg/kg/injection, schedule: Q01DX009 (ip), vehicle: saline with Tween-80 103 % of control | dose: 50.0 mg/kg/injection, schedule: Q01DX009 (ip), vehicle: saline with Tween-80 94 % of control | [12] 96 % of control and 87 % of control | dose: 100.0 mg/kg/injection, schedule: Q04DX002 (ip), vehicle: saline with Tween-80 96 % of control | dose: 150.0 mg/kg/injection, schedule: Q01DX009 (ip), vehicle: saline with Tween-80 89 % of control | dose: 200.0 mg/kg/injection, schedule: Q04DX002 (ip), vehicle: saline with Tween-80 107 % of control | dose: 225.0 mg/kg/injection, schedule: Q01DX009 (ip), vehicle: saline with Tween-80 94 % of control | dose: 335.0 mg/kg/injection, schedule: Q01DX009 (ip), vehicle: saline with Tween-80 91 % of control | dose: 400.0 mg/kg/injection, schedule: Q04DX002 (ip), vehicle: saline with Tween-80 111 % of control

Nc1cc(=O)n(Cc2ccccc2)c(=O)n1Cc1ccccc1
inactive: [11] 104 % of control | dose: 100.0 mg/kg/injection, schedule: Q01DX001 (ip), vehicle: carboxymethylcellulose (CMC) 101 % of control | dose: 200.0 mg/kg/injection, schedule: Q01DX001 (ip), vehicle: carboxymethylcellulose (CMC) 111 % of control | dose: 400.0 mg/kg/injection, schedule: Q01DX001 (ip), vehicle: carboxymethylcellulose (CMC) 98 % of control
